Source: the supplement of paper PMC8149375

Experiments:
Conditions in all cases: treatment: drug + dasatinib (fixed dose, not stated); 5 days
769-P [1] = test: GI50 of drug in presence of dasatinib; higher = less potent
Description: (§1)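 Primary HTS combination arm: 8 RCC cell lines treated with 8 doses (up to 10 uM) of each library drug plus a fixed dose of dasatinib (dose not stated) for 5 days; viability read by CellTiter-Glo and normalised to DMSO. GI50 was fitted with XLfit, AUC is the area under the dose-response curve, and minimum viability is the lowest fraction of DMSO viability across doses.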

786-O [2] = test: as above
Description: as §1

A498 [3] = test: as above
Description: as §1

ACHN [4] = test: as above
Description: as §1

CAKI-1 [5] = test: as above
Description: as §1

SN12C [6] = test: as above
Description: as §1

TK-10 [7] = test: as above
Description: as §1

UO-31 [8] = test: as above
Description: as §1

769-P [9] = test: minimum viability across doses, drug + dasatinib, relative to DMSO (fraction); higher = less growth inhibition
Description: as §1

786-O [10] = test: as above
Description: as §1

A498 [11] = test: as above
Description: as §1

ACHN [12] = test: as above
Description: as §1

CAKI-1 [13] = test: as above
Description: as §1

SN12C [14] = test: as above
Description: as §1

TK-10 [15] = test: as above
Description: as §1

UO-31 [16] = test: as above
Description: as §1

769-P [17] = test: AUC of dose-response viability curve, drug + dasatinib, normalised to DMSO (arbitrary (AUC of normalised viability)); higher = less growth inhibition
Description: as §1

786-O [18] = test: as above
Description: as §1

A498 [19] = test: as above
Description: as §1

ACHN [20] = test: as above
Description: as §1

CAKI-1 [21] = test: as above
Description: as §1

SN12C [22] = test: as above
Description: as §1

TK-10 [23] = test: as above
Description: as §1

UO-31 [24] = test: as above
Description: as §1

GI50 of drug (786-O [2]) [nM] | GI50 of drug (ACHN [4]) [nM] | SMILES | GI50 of drug (769-P [1]) [nM] | GI50 of drug (A498 [3]) [nM] | GI50 of drug (CAKI-1 [5]) [nM] | GI50 of drug (SN12C [6]) [nM] | GI50 of drug (TK-10 [7]) [nM] | GI50 of drug (UO-31 [8]) [nM] | minimum viability across doses (769-P [9]) | minimum viability across doses (786-O [10]) | minimum viability across doses (A498 [11]) | minimum viability across doses (ACHN [12]) | minimum viability across doses (CAKI-1 [13]) | minimum viability across doses (SN12C [14]) | minimum viability across doses (TK-10 [15]) | minimum viability across doses (UO-31 [16]) | AUC of dose-response viability curve (769-P [17]) | AUC of dose-response viability curve (786-O [18]) | AUC of dose-response viability curve (A498 [19]) | AUC of dose-response viability curve (ACHN [20]) | AUC of dose-response viability curve (CAKI-1 [21]) | AUC of dose-response viability curve (SN12C [22]) | AUC of dose-response viability curve (TK-10 [23]) | AUC of dose-response viability curve (UO-31 [24])
4900 | 3630 | CC[C@H](CO)Nc1nc(NCc2ccccc2)c2ncn(C(C)C)c2n1 [Roscovitine (Seliciclib, CYC202)] + Cc1nc(Nc2ncc(C(=O)Nc3c(C)cccc3Cl)s2)cc(N2CCN(CCO)CC2)n1 [dasatinib] | > 10000 | > 10000 | > 10000 | > 10000 | > 10000 | 9070 | 0.595 | 0.259 | 0.847 | 0.266 | 0.514 | 0.669 | 0.675 | 0.272 | 2.52 | 2.32 | 3.29 | 2.15 | 2.54 | 2.52 | 2.74 | 3.04
2000 | 366 | CN1CCN(CCOc2cc(OC3CCOCC3)c3c(Nc4c(Cl)ccc5c4OCO5)ncnc3c2)CC1 [Saracatinib (AZD0530)] + Cc1nc(Nc2ncc(C(=O)Nc3c(C)cccc3Cl)s2)cc(N2CCN(CCO)CC2)n1 [dasatinib] | 311 | > 10000 | 878 | > 10000 | 709 | 1090 | 0.0614 | 0.333 | 0.616 | 0.192 | 0.14 | 0.536 | 0.102 | 0.158 | 1.68 | 2.28 | 3.19 | 1.79 | 2.01 | 2.39 | 2.19 | 2.51
> 10000 | > 10000 | Cc1cc(C)c(/C=C2\C(=O)Nc3ccccc32)[nH]1 [Semaxanib (SU5416)] + Cc1nc(Nc2ncc(C(=O)Nc3c(C)cccc3Cl)s2)cc(N2CCN(CCO)CC2)n1 [dasatinib] | > 10000 | > 10000 | > 10000 | > 10000 | > 10000 | > 10000 | 0.658 | 0.606 | 1.01 | 0.472 | 0.584 | 0.666 | 0.657 | 1.2 | 2.48 | 2.4 | 3.96 | 1.99 | 2.21 | 2.46 | 2.54 | 4.67
2200 | 3170 | CNC(=O)c1cc(Oc2ccc(NC(=O)Nc3ccc(Cl)c(C(F)(F)F)c3)cc2)ccn1.Cc1ccc(S(=O)(=O)O)cc1 [Sorafenib (Nexavar)] + Cc1nc(Nc2ncc(C(=O)Nc3c(C)cccc3Cl)s2)cc(N2CCN(CCO)CC2)n1 [dasatinib] | 3770 | 7050 | 4810 | 5960 | 9080 | 1530 | 0.249 | 0.174 | 0.245 | 0.0615 | 0.118 | 0.265 | 0.471 | 0.138 | 2.31 | 2.32 | 2.94 | 2.33 | 2.42 | 2.52 | 2.72 | 2.41
> 10000 | > 10000 | CN1CCN(c2nc(C3=C(c4c[nH]c5ccccc45)C(=O)NC3=O)c3ccccc3n2)CC1 [Sotrastaurin (AEB071)] + Cc1nc(Nc2ncc(C(=O)Nc3c(C)cccc3Cl)s2)cc(N2CCN(CCO)CC2)n1 [dasatinib] | > 10000 | > 10000 | > 10000 | > 10000 | > 10000 | > 10000 | 0.673 | 0.674 | 0.904 | 0.536 | 0.555 | 0.661 | 0.663 | 1.16 | 2.3 | 3.14 | 3.6 | 2.04 | 2.44 | 2.45 | 2.84 | 4.79
2520 | 281 | CCN(CC)CCNC(=O)c1c(C)[nH]c(/C=C2\C(=O)Nc3ccc(F)cc32)c1C.O=C(O)C[C@H](O)C(=O)O [Sunitinib Malate (Sutent)] + Cc1nc(Nc2ncc(C(=O)Nc3c(C)cccc3Cl)s2)cc(N2CCN(CCO)CC2)n1 [dasatinib] | 3140 | 2020 | 496 | 1530 | 2860 | 1020 | 0.0812 | 0.0195 | 0.167 | 0.0769 | 0.00649 | 0.0218 | 0.221 | 0.0138 | 2.26 | 2.49 | 2.52 | 1.58 | 1.81 | 1.88 | 2.52 | 2.59
171 | 235 | CCS(=O)(=O)c1cccc(-c2cc(C(=O)NC3CCN(C)CC3)c(C)c3[nH]c4ncc(C)cc4c23)c1 [TAK-901] + Cc1nc(Nc2ncc(C(=O)Nc3c(C)cccc3Cl)s2)cc(N2CCN(CCO)CC2)n1 [dasatinib] | 4010 | 588 | 318 | 347 | 607 | 8850 | 0.344 | 0.00567 | 0.013 | 0.0237 | 0.0186 | 0.00509 | 0.0604 | 0.287 | 2.27 | 1.55 | 2.63 | 1.5 | 1.62 | 1.52 | 1.93 | 4.3
> 10000 | 2730 | Nc1nc(N)c2nc(-c3cccc(O)c3)c(-c3cccc(O)c3)nc2n1 [TG100-115] + Cc1nc(Nc2ncc(C(=O)Nc3c(C)cccc3Cl)s2)cc(N2CCN(CCO)CC2)n1 [dasatinib] | 6880 | > 10000 | 3150 | > 10000 | > 10000 | > 10000 | 0.463 | 0.681 | 0.882 | 0.368 | 0.308 | 0.637 | 0.739 | 1.03 | 2.32 | 2.76 | 3.23 | 2.04 | 2.12 | 2.52 | 2.71 | 3.95
2540 | 346 | NC(=O)Nc1sc(-c2ccc(F)cc2)cc1C(N)=O [TPCA-1] + Cc1nc(Nc2ncc(C(=O)Nc3c(C)cccc3Cl)s2)cc(N2CCN(CCO)CC2)n1 [dasatinib] | 2180 | > 10000 | 458 | > 10000 | 848 | 3720 | 0.232 | 0.258 | 0.711 | 0.184 | 0.076 | 0.405 | 0.176 | 0.212 | 2.22 | 2.09 | 3.33 | 1.7 | 1.81 | 2.35 | 1.94 | 3.28
> 10000 | > 10000 | Cc1[nH]c(/C=C2\C(=O)Nc3ccccc32)c(C)c1CCC(=O)O [TSU-68] + Cc1nc(Nc2ncc(C(=O)Nc3c(C)cccc3Cl)s2)cc(N2CCN(CCO)CC2)n1 [dasatinib] | > 10000 | > 10000 | > 10000 | > 10000 | > 10000 | > 10000 | 0.66 | 0.61 | 0.699 | 0.512 | 0.595 | 0.609 | 0.74 | 1.07 | 2.42 | 2.39 | 3.61 | 1.94 | 2.29 | 2.32 | 2.77 | 1.95
1200 | 344 | CC(C)c1ccccc1Cc1cc(C(=O)Nc2ccc(S(=O)(=O)c3ccccc3C(C)(C)C)cc2)c(O)c(O)c1O [TW-37] + Cc1nc(Nc2ncc(C(=O)Nc3c(C)cccc3Cl)s2)cc(N2CCN(CCO)CC2)n1 [dasatinib] | 1570 | > 10000 | 506 | > 10000 | 3060 | 9770 | 0.0407 | 0.124 | 0.773 | 0.0767 | 0.0425 | 0.519 | 0.325 | 0.416 | 2.19 | 2.07 | 3.28 | 1.58 | 1.77 | 2.6 | 2.18 | 4.4
3570 | 287 | Nc1cccc(-c2cc3c(Oc4cccc(O)c4)ncnc3[nH]2)c1 [TWS119] + Cc1nc(Nc2ncc(C(=O)Nc3c(C)cccc3Cl)s2)cc(N2CCN(CCO)CC2)n1 [dasatinib] | 798 | > 10000 | 1740 | 3600 | 1480 | 3660 | 0.0643 | 0.288 | 0.653 | 0.126 | 0.07 | 0.25 | 0.0898 | 0.0374 | 1.93 | 2.39 | 3.56 | 1.62 | 2.11 | 2.33 | 2.34 | 3.25

SMILES | GI50 of drug (786-O [2]) [nM] | GI50 of drug (ACHN [4]) [nM] | GI50 of drug (769-P [1]) [nM] | GI50 of drug (A498 [3]) [nM] | GI50 of drug (CAKI-1 [5]) [nM] | GI50 of drug (SN12C [6]) [nM] | GI50 of drug (TK-10 [7]) [nM] | GI50 of drug (UO-31 [8]) [nM] | minimum viability across doses (769-P [9]) | minimum viability across doses (786-O [10]) | minimum viability across doses (A498 [11]) | minimum viability across doses (ACHN [12]) | minimum viability across doses (CAKI-1 [13]) | minimum viability across doses (SN12C [14]) | minimum viability across doses (TK-10 [15]) | minimum viability across doses (UO-31 [16]) | AUC of dose-response viability curve (769-P [17]) | AUC of dose-response viability curve (786-O [18]) | AUC of dose-response viability curve (A498 [19]) | AUC of dose-response viability curve (ACHN [20]) | AUC of dose-response viability curve (CAKI-1 [21]) | AUC of dose-response viability curve (SN12C [22]) | AUC of dose-response viability curve (TK-10 [23]) | AUC of dose-response viability curve (UO-31 [24])
CN[C@@H]1C[C@H]2O[C@@](C)([C@@H]1OC)n1c3ccccc3c3c4c(c5c6ccccc6n2c5c31)C(=O)NC4 [Staurosporine] + Cc1nc(Nc2ncc(C(=O)Nc3c(C)cccc3Cl)s2)cc(N2CCN(CCO)CC2)n1 [dasatinib] | < 3 | 3.6 | < 3 | 32.3 | < 3 | 10.4 | < 3 | < 3 | 0.0048 | 0.00375 | 0.0115 | 0.00268 | 0.00221 | 0.00331 | 0.0201 | 0.0095 | 0.201 | 0.109 | 1.07 | 0.372 | 0.0603 | 0.755 | 0.303 | 0.0461
